Here are results for five compounds from patent publication US8653023B1, “Dual beneficial effect of dopamine enhancing and neuroprotective actions of PKC delta inhibitors for treatment of Parkinson's disease” (Iowa State University Research Foundation, Inc., priority 2006, dated 2014).

Data set [1] relates to MPTP-treated C57 black mice. Kind of data set: Locomotor activity of MPTP-treated mice (VersaMax). It is filed as in vivo. As to conditions: MPTP treatment alone, 1 day after treatment, 20-min session. An excerpt: Behavioral data were collected using VersaMax Animal Activity Monitors (AccuScan Model RXYZCM-16, Columbus, Ohio). Each chamber was 40×40×30.5 cm^3, made of clear Plexiglas and covered with a Plexiglas lid with air-holes. Infrared monitoring sensors were located every 2.54 cm along the perimeter (16 infrared beams along each side) and 2.5 cm above the floor. Two additional sets of 16 sensors were located 8.0 cm above the floor on opposite sides. Data were collected and analyzed by a VersaMax Analyzer (AccuScan Model CDA-8, Columbus, Ohio) which in turn sent information to an IBM computer where it was stored for future analyses. Locomotor activity was presented as horizontal movement and vertical movement. All data are expressed as percent of the vehicle-treated control group (mean 6 SEM) and were obtained 1 day after MPTP or vehicle treatment in a 20-min test session.

For data set [2], the system named is MPTP-treated C57 black mice. The experiment in a line: TH+ neuron count in substantia nigra pars compacta of MPTP mice (stereology). As to conditions: MPTP 30 mg/kg for 5 continuous days. It is filed as in vivo. Here is the method:
(§1) Six to 8-week-old […] mice weighing 30 g were housed in standard conditions: constant temperature (22±1° C.), humidity (relative, 30%) and a 12-h light/dark cycle, and were allowed free access to food and water. The animals and protocol procedures were approved and supervised by the Committee on Animal Care (COAC) at the Iowa State University. Rottlerin was dissolved in 1% dimethyl sulfoxide (DMSO) and was administered intraperitoneally at various doses. An equal volume of DMSO was given to controls. Rottlerin and DMSO administrations were started 24 h before the injections of the MPTP and continued for 5 days in the MPTP model. In the chronic regimens of MPTP administration, MPTP in phosphate-buffered saline (PBS) was injected intraperitoneally at doses of 30 mg/kg, once a day. Mice were sacrificed 2 days after the MPTP injections, and the striata were dissected for catecholamine analysis. Additionally, rottlerin alone (0.3-20 mg/kg) was administered via intraperitoneally or orally and then brain tissues were subjected to neurochemical analyses (FIG. 8). The mesencephalons were fixed in 4% paraformaldehyde for 5 days for tyrosine hydroxylase (TH) immunostaining.
Brains removed following cervical dislocation were post-fixed in paraformaldehyde and used for TH immunolabelling and stereological studies. Fixed brains were cut into 30-μm sections and collected in cryoprotectant. Sections were rinsed in PBS at room temperature before immunostaining, then incubated with a anti-TH antibody as described (Thiruchelvam, McCormack et al. 2003; Thiruchelvam, Powers et al. 2004). The total number of TH^+ and TH Nissl-stained neurons in the SNpc were counted using the optical fractionator and previously described counting criteria (Thiruchelvam, McCormack et al. 2003; Thiruchelvam, Powers et al. 2004). After delineation of the region at low magnification (4× objective), every fourth section from the entire substantia nigra was sampled at higher magnification (100× objective) using StereoImager (Microbrightfield, Vt.).

Data set [3] concerns MPTP-treated C57 black mice. The experiment in a line: MPTP-induced striatal dopamine depletion (HPLC-EC). It is filed as in vivo. To be noted: MPTP 30 mg/kg for 5 days alone. The method, then: as §1
DA and DOPAC levels in brain striatal tissues were determined by high-performance liquid chromatography with electrochemical detection (HPLC-EC); samples were prepared as described previously (Kitazawa, Anantharam et al. 2001). Briefly, neurotransmitters were extracted from samples using 0.1M perchloric acid containing 0.05% Na2EDTA and 0.1% Na2S2O5. The extracts were filtered in 0.22 micron spin tubes and 20 μl of the samples was loaded for analysis. DA and DOPAC were separated isocratically by a reversed-phase column with a flow rate of 0.7 ml/min. An HPLC system (ESA Inc., Bedford, Mass.) with an ESA automatic sampler (model 542) was used for these experiments. The electrochemical detection (EC) system consisted of an ESA coulochem model 5100A with a microanalysis cell model 5014A and a guard cell model 5020 (ESA Inc., Bedford, Mass.). The DA and DOPAC levels were measured as pg/mg protein and expressed as percent of control.

Data set [4] relates to tyrosine hydroxylase (TH). The experiment in a line: TH activity (DOPA levels after NSD-1015) in N27 cells. It is filed as cell-based, rat. As to conditions: okadaic acid 2 μM for 2 hr. The method, then: Plasmid pPKCδ^K376R-V5 encodes the loss of function PKCδ-V5 epitope tagged mutant protein; K376R refers to the mutation of the lysine residue at position 376 to arginine in the catalytic site resulting in inactivation of the kinase. Plasmid pLacZ-V5 encodes the β-galactosidase protein alone with a V5-epitope and is used as a vector control. N27 cells stably expressing PKCδ^K376R-V5 (herein referred to as PKCδ-DN cells) and LacZ alone-expressing cells (LacZ cells) were cultured as described previously (Kitazawa et al., 2005). PKCδ-DN or LacZ expressing N27 cells were identified by immunostaining of the C-terminal V5 epitope on expressed proteins and were differentiated with cAMP analogs (e.g. dibutyral cAMP) prior to experiments. PKCδ-DN and LacZ were also transiently expressed in mouse primary mesencephalic neurons using an AMAXA® Nucleofector™ kit (AMAXA GmbH, Germany). As described above, primary mesencephalic neurons were prepared from the midbrain of 16-18-day-old mice embryos. After digestion with trypsin-EDTA-HBSS, the primary neurons were homogenously resuspended with transfection buffer provided with the kit to a final concentration of 4-5×10^6 neurons/100 μl and mixed with 1 μg plasmid DNA encoding either PKCδ-DN-V5 or LacZ-V5. […] Transfection efficiency was >75% as determined by immunostaining of V5-expression. […]

The test system of data set [5] is tyrosine hydroxylase (TH). Kind of data set: TH phosphorylation in N27 cells (Western blot, immunofluorescence). The format is cell-based, rat. The method, then:
(§2) PC12 cells, differentiated N27 dopaminergic cells and primary mesencephalic neurons were exposed to 1-10 μM rottlerin for the duration of the experiment. DMSO (0.01%) was used as vehicle control. PKCδ-DN- and Lac Z-expressing N27 cells were only treated with 0.01% DMSO. […] Untreated or vehicle treated cells were used as control samples.
(§3) Cell and brain lysates containing equal amounts of protein were loaded in each lane and separated on a 10-12% SDS-PAGE gel as described previously (Kaul et al., 2003). After the separation, proteins were transferred to nitrocellulose membrane, and nonspecific binding sites were blocked by treating with 5% nonfat dry milk powder. The membranes were then treated with primary antibodies directed against PKCδ (rabbit polyclonal or mouse monoclonal, 1:2000 dilution), TH (rabbit polyclonal or mouse monoclonal, 1:1000), phospho TH-ser40 (rabbit polyclonal, 1:1000), phospho TH-ser31 TH (rabbit polyclonal, 1:1000), or PP2A (mouse monoclonal, 1:1000). The primary antibody treatments were followed by treatment with secondary HRP-conjugated anti-rabbit or anti-mouse IgG (1:2000) for 1 hr at RT. Secondary antibody-bound proteins were detected using Amersham's ECL chemiluminescence kit. To confirm equal protein loading, blots were reprobed with a β-actin antibody (1:5000 dilution). Western blot images were captured with a Kodak 2000 MM imaging system and data were analyzed using 1D Kodak imaging analysis software.
Immunostaining of PKCδ, TH, Ser40 P-TH and Ser31 P-TH was performed in PC12, N27 and primary mesencephalic neurons. Cells were grown on poly-L-Lysine-coated glass cover slips. After treatment, the cells were fixed with 4% paraformaldehyde and processed for immunohistochemical staining. First, non-specific sites were blocked with 5% normal goat serum containing 0.4% BSA and 0.2% Triton-X 100 in PBS for 20 min. Cells were then incubated with antibodies directed against PKCδ (1:500 dilution), TH (1:500 dilution), and P-THSer40 (1:500 dilution) overnight at 4° C. followed by incubation with either Alexa 488-conjugated (green, 1:1000) or Cy3-conjugated (red, 1:1000) secondary antibody for 1 hr at RT. Secondary antibody treatments were followed by incubation with Hoechst 33342 (10 μg/ml) for 3 min at room temperature to stain the nucleus. Then the coverslips containing stained cells were washed with PBS, mounted on a slide, and viewed under a Nikon inverted fluorescence microscope (Model TE-2000U); images were captured with a SPOT digital camera (Diagnostic Instruments, Sterling Heights, Mich.).
For orientation: Immunoblotting shows a protein as a band on a membrane.

In data set [6] the test system is primary mesencephalic dopaminergic neuronal cells. The format is cell-based, mice. As to conditions: 10 μM MPP+ for 48 hrs. The method, then:
Primary mesencephalic neuronal cultures were prepared from the ventral mesencephalon of gestational 16-18-day-old mice embryos as described previously (Yang et al., 2004). Mesencephalic tissues were dissected and maintained in ice-cold Ca^2+-free HESS and then dissociated in HESS solution containing trypsin-EDTA (0.25%) for 20 min at 37° C. The dissociated cells were then plated at equal density (0.5×10^6 cells) in 30-mm-diameter tissue culture wells precoated with poly-D-lysine (1 mg/ml). Cultures were maintained in a chemically defined medium consisting of neurobasal medium fortified with B-27 supplements, L-glutamine (500 μM), penicillin (100 IU/ml), and streptomycin (100 μg/ml) (Life Technologies). The cells were maintained in a humidified CO2 incubator (5% CO2, 37° C.) for 24 hr and then treated with cytosine arabinoside (10 μM) for 24 hr to inhibit glial cell proliferation. Half of the culture medium was replaced every 2 days. Approximately 6-7-day-old cultures were used for experiments. […]
After treatment, the primary mesencephalic neurons were fixed with 4% paraformaldehyde and processed for immunocytotochemical staining. […] Then the coverslips containing stained cells were washed with PBS, mounted on a slide, and viewed under a Nikon inverted fluorescence microscope (Model TE-2000U); images were captured with a SPOT digital camera (Diagnostic Instruments, Sterling Heights, Mich.).
We used Metamorph software (Universal Imaging, Version 5.0) for measurement of TH^+ cells and neuronal processes in primary neurons from each coverslip. For measurement of TH cell count, the images were first thresholded, and then neuronal count and volume were measured using the Integrated Morphometry Analysis (IMA) function. The data were logged to an Excel spreadsheet with defined row and column positions and then analyzed. […] The data were exported to an Excel spreadsheet and analyzed. TH^+ neurons and their processes were counted in at least six individual cultures for each treatment. This method is a modified version of methodology recently used for quantification of neuronal processes.

Another data set concerns PKCδ. The experiment in a line: PKCδ expression in siRNA-transfected N27 cells (Western blot). It is filed as cell-based, rat. As to conditions: vs siRNA-NS. The method, then: Small interfering RNAs (siRNAs) were prepared by an in vitro transcription method as described previously (Yang et al., 2004). Cy-3 labeling of siRNA and transfections were carried out as described in a recent publication (Yang et al., 2004). We used the siRNA PKCδ-4 and non-specific siRNA (siRNA-NS) for this study.
as §3, with “To confirm equal protein loading, blots were reprobed with a β-actin antibody (1:5000 dilution).” left out

The test system of a further data set is N27 cells. The experiment in a line: Cellular DA and DOPAC levels in N27 cells (HPLC-EC). The format is cell-based, rat. To be noted: siRNA-transfected N27 cells. Here is the method: as §2
DA and DOPAC levels in PC12, N27 cells and in brain striatal tissues were determined by high-performance liquid chromatography with electrochemical detection (HPLC-EC); samples were prepared as described previously (Kitazawa et al., 2001). The DA and DOPAC levels were measured as pg/mg protein and expressed as percent of control.

A further data set has as its system dopaminergic N27 cells. To be noted: cited from earlier work.
Setting [7] is: N27 cells, okadaic acid 2 μM for 2 hr.

Consider `CN1CC=C(c2ccccc2)CC1` [MPTP, 1-methyl-4-phenyl-1,2,3,6-tetrahydropyridine], for which the “locomotor activity compared to control group” value in data set [1] was 55.17%. For the same compound, the “cell loss in SNpc as compared to controls” value in [2] is on record as 40%. Moreover, in data set [3], the “dopamine level in striatum” value is listed as 14.49±3.77 pg DA/mg tissue weight and the “reduction of striatal dopamine versus vehicle” value is −94%.

As to `C=C1[C@@H](O)[C@@H]2O[C@]3(CC[C@H](/C=C/[C@@H](C)[C@@H]4CC(C)=C[C@@]5(O[C@H](C[C@@](C)(O)C(=O)O)CC[C@H]5O)O4)O3)CC[C@H]2O[C@@H]1[C@@H](O)C[C@H](C)[C@H]1O[C@@]2(CCCCO2)CC[C@H]1C` [okadaic acid], in [4], the “DOPA levels (TH activity)” value is reported as 1434±212.6 pg/10^6 cells/hr. Besides, in [5] (setting [7]), the “baseline THser40 phosphorylation levels versus untreated cells” value was “increase” and the “levels of total TH versus untreated cells” value was “similar”.

Take `C[n+]1ccc(-c2ccccc2)cc1` [MPP^+, 1-methyl-4-phenylpyridinium]: the “cell death and loss of neurites length of TH+ neurons” value in [6] was determined as 90%.

With “PKCδ siRNA: siRNA PKCδ-4 directed against PKCδ; probably siRNA-d-4, SEQ ID NO:7 and 8 (chain 1 AACTGTTTGTGAATTTGCCTTCCTGTCTC; chain 2 AAAAGGCAAATTCACAAACAGCCTGTCTC; listed as DNA, chemistry not given here)”, in data set [5] (siRNA-transfected N27 cells), the “TH-Ser40 (60 kDa band) densitometry, increase versus siRNA-NS” value is reported as 2 fold and the “total TH levels versus siRNA-NS” value is on record as “similar”. Moreover, the “reduction in PKCδ expression” value in the data set with PKCδ is reported as 55%. Moreover, in the data set on N27 cells, the “increase in DOPAC versus siRNA-NS” value was 71% and the “increase in the DA level versus siRNA-NS” value worked out at 45%.

As to `O=c1c(-c2ccc(O)cc2)coc2cc(O)cc(O)c12` [genistein], the “H2O2 and MPP+-induced apoptotic cell death (genistein: also PKCδ cleavage, kinase activation)” value in the data set on dopaminergic N27 cells is on record as “dramatically inhibited”.
